Data: patent publication US6881752B2 (University of Alabama, priority 1998, dated 2005)

Experiments:
[1] = system: membrane phosphotyrosine protein phosphatase (rat adipocytic membranes); test: Rat adipocytic membrane phosphotyrosine phosphatase activity, p-NPP substrate; format: biochemical; settings: 5 mM p-NPP
Method: 125 μL of a rat membrane suspension corresponding to 0.0856 mg of protein/mL was utilized.
(§1) 100% activity represents the activity in the absence of added chromium complexes or their components. 25 μL of a rat membrane suspension corresponding to 0.0895 mg protein/mL was utilized.
(§2) Fat cells from male Sprague Dawley rats were isolated using the procedures of Rodbell^19 and Anderson et al.^20 with modifications.^2 Three rats (not kept on a Cr-deficient diet) were sacrificed by decapitation, and their epididymal fat pads removed. Rat adipocytes were washed with 1% bovine serum albumin (BSA). 50 mM Hepes, pH 7.4 buffer containing 10 μg/mL leupeptin and 5 μg/mL aprotinin. Cells were homogenized with a manual teflon homogenizer and frozen and thawed five times. The lipid layer was removed, and the cell homogenate was centrifuged for one hour at 40,000 g. The supernatant was removed, and the pellet was suspended in Hepes buffer and used as the source of membrane phosphatase and kinase activity. Protein concentrations were analyzed using the BCA method (Pierce Chemical Co.) with BSA as standard.
p-nitrophenyl phosphate (p-NPP) was used to determine the amount of PTP activity using the method of Li et al.^21 The assay used 5 mM substrate in 0.05 M Tris, pH 7.5, unless noted. Activation of PTP activity by LMWCr and other Cr-containing species was examined as described by Davis et al.^2 Solutions of LMWCr, 1,2, and the Cr-amino acid mixture were incubated with the enzyme for fifteen minutes at 37° C. before initiation of the reaction. Hydrolyses proceeded for one hour at 37° C. The extent of hydrolysis was determined at 404 nm (ε=1.78×10^4M^−1cm^−1).

[2] = target: T1, insulin-dependent membrane tyrosine protein kinase activity (rat adipocytic membranes) (Rattus norvegicus, UniProt P15127); test: Rat adipocytic membrane protein tyrosine kinase activity in the presence of 100 nM insulin; format: biochemical
T1 construct: from tissue; host or cells: epididymal fat pad adipocyte membranes, male Sprague Dawley rats
T1 sequence (P15127 764-1383 limits assumed): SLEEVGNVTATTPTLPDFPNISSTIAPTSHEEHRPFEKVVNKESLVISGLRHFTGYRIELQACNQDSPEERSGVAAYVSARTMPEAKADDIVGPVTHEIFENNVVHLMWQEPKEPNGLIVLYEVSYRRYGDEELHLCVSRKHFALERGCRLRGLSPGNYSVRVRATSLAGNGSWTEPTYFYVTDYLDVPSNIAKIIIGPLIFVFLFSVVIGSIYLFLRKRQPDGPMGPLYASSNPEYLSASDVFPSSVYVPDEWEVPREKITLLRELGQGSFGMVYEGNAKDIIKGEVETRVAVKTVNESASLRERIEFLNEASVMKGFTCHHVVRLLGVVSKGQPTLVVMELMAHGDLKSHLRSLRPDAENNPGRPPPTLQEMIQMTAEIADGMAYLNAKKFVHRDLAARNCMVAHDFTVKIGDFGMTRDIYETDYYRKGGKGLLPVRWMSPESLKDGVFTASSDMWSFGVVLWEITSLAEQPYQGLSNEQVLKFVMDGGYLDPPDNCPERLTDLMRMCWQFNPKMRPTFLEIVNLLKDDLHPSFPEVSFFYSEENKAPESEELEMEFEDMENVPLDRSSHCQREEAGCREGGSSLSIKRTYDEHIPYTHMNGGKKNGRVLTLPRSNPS
T1 sequence (P15127 27-759 partner limits assumed): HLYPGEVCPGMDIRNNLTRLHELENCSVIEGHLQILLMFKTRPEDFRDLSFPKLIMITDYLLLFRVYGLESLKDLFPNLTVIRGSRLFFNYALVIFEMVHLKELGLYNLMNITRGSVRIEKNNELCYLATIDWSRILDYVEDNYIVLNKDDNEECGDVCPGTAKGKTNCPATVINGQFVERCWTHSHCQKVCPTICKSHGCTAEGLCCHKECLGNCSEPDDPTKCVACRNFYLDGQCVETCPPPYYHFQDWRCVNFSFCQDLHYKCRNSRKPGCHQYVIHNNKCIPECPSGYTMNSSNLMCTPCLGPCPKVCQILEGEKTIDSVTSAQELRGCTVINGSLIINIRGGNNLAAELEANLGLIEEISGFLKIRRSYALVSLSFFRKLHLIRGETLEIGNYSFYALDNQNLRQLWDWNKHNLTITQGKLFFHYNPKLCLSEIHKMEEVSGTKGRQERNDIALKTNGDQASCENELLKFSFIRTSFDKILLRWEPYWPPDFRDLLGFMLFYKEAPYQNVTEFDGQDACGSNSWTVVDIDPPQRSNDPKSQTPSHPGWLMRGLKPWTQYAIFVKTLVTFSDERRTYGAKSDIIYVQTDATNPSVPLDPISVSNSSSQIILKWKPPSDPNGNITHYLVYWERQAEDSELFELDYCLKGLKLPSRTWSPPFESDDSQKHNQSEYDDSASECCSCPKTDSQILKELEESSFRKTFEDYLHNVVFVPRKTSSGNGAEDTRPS
T1 sequence (P01317 25-54 partner limits assumed): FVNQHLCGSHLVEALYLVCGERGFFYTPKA
T1 sequence (P01317 85-105 partner limits assumed): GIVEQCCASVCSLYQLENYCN
Method: as §1, §2

[3] = system: adult-onset diabetic patients; settings: cited from earlier work

| effect on membrane phosphatase activity [1] | effect on insulin-dependent membrane kinase activity [2] | Compound | insulin requirements ([3]; 138 adult-onset diabetic patients) | glycemic control ([3]; 180 adult-onset diabetic patients) |
| --- | --- | --- | --- | --- |
| inhibits | inhibits | [Cr3O(O2CCH3)6 (H2O)3]Cl [compound 2] |  |  |
|  |  | chromium(III) picolinate | reduced insulin requirements | improved glycemic control |
| do not potentiate | do not potentiate | CCC(=O)O [Propionic acid] |  |  |

| Compound | effect on membrane phosphatase activity [1] | effect on insulin-dependent membrane kinase activity [2] | insulin requirements ([3]; 138 adult-onset diabetic patients) | glycemic control ([3]; 180 adult-onset diabetic patients) |
| --- | --- | --- | --- | --- |
| O=[N+]([O-])O [nitrate] | do not potentiate | do not potentiate |  |  |
